This is an account of results in patent EP1641803B1, “THIENOPYRIMIDINE DERIVATIVES AS POTASSIUM CHANNEL INHIBITORS” (Xention Limited, priority 2003, dated 2004).

The target in one test is hKv1.5 (Homo sapiens, UniProt P22460). Put plainly: Kv1.5 Autopatch Electrophysiology (whole cell patch-clamp). The format is cell-based. Particulars: compound at 1µM, room temperature (22-24°C), held at -80mV, step to 0mV for 1000ms, total charge measured. The method, boiled down:
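Whole-cell automated patch-clamp at 22-24°C, compounds tested at 1µM in external bather (KCl/K-gluconate, pH 7.4; KCl/EGTA pipette). Cells held at -80mV and stepped to 0mV for 1000ms every 5s; only cells with IK > 500 pA and Rseries ≤18 MΩ used. Read-out: total charge over the whole step.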

For another test, the target named is T1, human Kv1.5 (Homo sapiens, UniProt P22460).
T1 construct: expressed in transfected cells
T1 sequence (P22460 whole entry): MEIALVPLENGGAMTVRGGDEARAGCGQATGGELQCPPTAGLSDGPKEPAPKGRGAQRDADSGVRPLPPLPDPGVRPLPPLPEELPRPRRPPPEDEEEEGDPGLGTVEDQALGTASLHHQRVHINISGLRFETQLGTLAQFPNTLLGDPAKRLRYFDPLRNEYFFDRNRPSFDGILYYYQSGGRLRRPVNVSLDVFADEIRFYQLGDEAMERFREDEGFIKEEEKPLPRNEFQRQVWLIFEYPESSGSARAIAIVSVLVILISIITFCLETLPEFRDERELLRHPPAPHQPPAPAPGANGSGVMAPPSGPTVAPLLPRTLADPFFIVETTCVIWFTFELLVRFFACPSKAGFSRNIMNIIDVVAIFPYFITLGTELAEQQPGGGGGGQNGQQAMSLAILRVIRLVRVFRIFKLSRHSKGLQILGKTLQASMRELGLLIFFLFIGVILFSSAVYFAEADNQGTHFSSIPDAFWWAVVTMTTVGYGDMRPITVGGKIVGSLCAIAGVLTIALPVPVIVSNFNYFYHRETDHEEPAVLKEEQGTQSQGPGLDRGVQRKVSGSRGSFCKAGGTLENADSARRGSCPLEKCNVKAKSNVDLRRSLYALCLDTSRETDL
Put plainly: Kv1.5 Rb+ Efflux Assay. The format is cell-based. Particulars: inhibition of 86Rb+ efflux through Kv1.5; cells stably transfected with human Kv1.5; 10 point concentration response curves n=2; normalised to 2.5mM 4 amino-pyridine block. In outline:
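Cells stably expressing human Kv1.5 loaded with ⁸⁶Rb⁺ ≥3 h, preincubated 10 min at room temperature with compound, then depolarised with high-KCl (145mM) buffer for 10 min; effluxed ⁸⁶Rb⁺ counted by Cerenkov emission (alternatively ⁸⁵Rb⁺ by atomic absorption). Inhibition normalised to 2.5mM 4-aminopyridine block; IC50 from 10-point curves, n=2, variable-slope sigmoidal fit.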

pIC50: −log10 of the molar value.

Chain of hKv1.5 (P22460 whole entry): as above

One may read the inhibition as the percentage by which the read-out fell short of the control. In general, pIC50 refers to the IC50 on a negative log10 scale, so that one unit is a factor of ten. The low end stands for a large IC50, the high end for a small IC50. `Clc1cccc(-c2csc3ncnc(NCc4ccccn4)c23)c1` [Example 321, [5-(3-Chlorophenyl)-thieno[2,3-d]pyrimidin-4-yl]-pyridin-2-ylmethyl-amine] showed an inhibition at 1 µM against hKv1.5 of 95%. This molecule also gave a pIC50 against human Kv1.5 of 5.82.
Regarding `COc1cccc(-c2csc3ncnc(NCc4ccccn4)c23)c1` [Example 322, [5-(3-Methoxyphenyl)-thieno[2,3-d]pyrimidin-4-yl]-pyridin-2-ylmethyl-amine], the inhibition at 1 µM against hKv1.5 worked out at 94%. Also, the pIC50 at human Kv1.5 is 6.59.
For `c1ccc(CNc2ncnc3scc(-c4ccc5cc[nH]c5c4)c23)nc1` [Example 323, [5-(1H-Indol-6-yl)-thieno[2,3-d]pyrimidin-4-yl]-pyridin-2-ylmethyl-amine] the same measures were 94% and 7.40.
At hKv1.5, `Clc1ccc(-c2csc3ncnc(NCc4ccccn4)c23)cc1` [Example 325, [5-(4-Chlorophenyl)-thieno[2,3-d]pyrimidin-4-yl]-pyridin-2-ylmethyl-amine] yielded an inhibition at 1 µM of 90.8%. Also, on human Kv1.5, the pIC50 is 5.60.
For `FC1(F)Oc2ccc(-c3csc4ncnc(NCc5ccccn5)c34)cc2O1` [Example 326, [5-(2,2-Difluoro-benzo[1,3]dioxol-5-yl)-thieno[2,3-d]pyrimidin-4-yl]-pyridin-2-ylmethyl-amine] the same measures were 89% and 4.98.
For `Fc1cccc(-c2csc3ncnc(NCc4ccccn4)c23)c1` [Example 331, [5-(3-Fluorophenyl)-thieno[2,3-d]pyrimidin-4-yl]-pyridin-2-ylmethyl-amine] the same measures were 76% and 7.52.
For `c1ccc(CNc2ncnc3scc(-c4ccc(N5CCOCC5)cc4)c23)nc1` [Example 332, [5-(4-Morpholin-4-yl-phenyl)-thieno[2,3-d]pyrimidin-4-yl]-pyridin-2-ylmethyl-amine] the same measures were 73% and 4.32.
`Fc1ccc(-c2csc3ncnc(NCc4ccccn4)c23)cc1F` [Example 333, [5-(3,4-Difluoro-phenyl)-thieno[2,3-d]pyrimidin-4-yl]-pyridin-2-ylmethyl-amine] gave an inhibition at 1 µM on hKv1.5 of 63%. Besides, at human Kv1.5, the pIC50 is 4.98.
